Assay [1] deals with parakeratosis caused by oleic acid. The assay can be described thus: Test on parakeratosis inhibitory action (oleic acid applied on the back of a hairless mouse). In kind it is in vivo. The conditions noted are these: for Incidence of Parakeratosis (Average of 4 mice): 100 μL, 3 days, grades of 1 to 4; for Effect on parakeratosis caused by oleic acid (in words): summary of Tables 2 and 3, hairless mouse. How it is done: An aqueous solution containing 3% each of GABA, glycine, D-glutamic acid and L-glutamic acid was prepared, and pH of each solution was adjusted to nutrality, if necessary. An aqueous solution containing 10 mM each of GABA, bicuculline methobromide (antagonist to GABA receptor type A), MK-801, muscimol, isogubacin, ATP, suramin, PPADS and TNP-ATP was also prepared.
Thereafter, 100 μL of sample solution or reference solution was applied. This procedure was repeated for 3 days, and the keratin layer on the back was peeled with a tape. The nucleus of the keratin layer was stained with hematoxylin, the number of nuclear cells was counted under a microscope, and the results were evaluated in four grades of 1 to 4.

The next assay relates to pores. The assay can be described thus: Test on pore-shrinking action (replicas of cheek pores). As to conditions: for Decision of Replica of Pores (Average of n = 5): 3% sample solution on cheek twice a day for 1 month, difference of scores (13 grades of 1 to 13) before and after the test; for Pore-shrinking effect (in words): summary of Table 4, 3% solutions.
The next assay deals with Epidermal keratinocyte. As to the kind of experiment: Excitatory action test of cells with oleic acid (intracellular calcium, fura-2-AM). Format: cell-based. As to conditions: summary of Table 1.
[2] abbreviates: Application Test of 3% Oleic Acid Solution, sample 10 mM, water reference 2.0.
Where [3] appears, read: Application Test of 30% Oleic Acid Solution, sample 3% solution, water reference 2.5.

Experimental for Epidermal keratinocyte: Epidermal keratinocyte was cultivated on an appropriate medium, for example, KGM medium, according to the conventional method. The cultured cells were seeded on a cover glass chamber and cultivated there a day before measuring calcium ions. An appropriate buffer solution, for example BSS (balanced salt solution) and a calcium sensitive fluorescent pigment (fura-2-AM) were added in the cultured cell at a concentration of about 2 μM on the next day, and the fluorescent pigment was allowed to be incorporated into the cell by incubating under an appropriate condition (for example 30 minutes at 37° C.). After completing intake of the pigment, the same buffer solution (fresh BSS) was added. […] The same measurement was carried out by adding only the same buffer solution (BSS). The fluorescence intensity at 340 nm was divided by the fluorescence intensity at 380 nm for determining the calcium concentration according to the conventional method.

For the molecule `Nc1ncnc2c1ncn2[C@@H]1O[C@H](COP(=O)(O)OP(=O)(O)OP(=O)(O)O)[C@@H](O)[C@H]1O` [ATP], the “Incidence of Parakeratosis (Average of 4 mice)” value (from here on “Incidence of Parakeratosis”) in assay [1] (setting [2]) was 2.3. In addition, in assay [1], the “Effect on parakeratosis caused by oleic acid (in words)” value (“Effect on parakeratosis caused” for short) is “worsens parakeratos is”.
As for `N[C@H](CCC(=O)O)C(=O)O` [D-Glutamic Acid, D-glutamic acid], in the assay on pores, the “Decision of Replica of Pores (Average of n = 5)” value (shortened to “Decision of Replica of Pores”) is listed as −0.4 and the “Pore-shrinking effect (in words)” value is reported as “excellent pore-shrinking effects”. Further, the “Incidence of Parakeratosis” value in assay [1] (setting [3]) was determined as 2.0. In addition, the “Effect on parakeratosis caused” value in assay [1] is on record as “improved parakeratosis”.
For the molecule `NCCCC(=O)O` [GABA, γ-aminobutyric acid], the “Decision of Replica of Pores” value with pores is given as −1.0. Moreover, the “Pore-shrinking effect (in words)” value with pores is “excellent pore-shrinking effects”. Moreover, the “Incidence of Parakeratosis” value in assay [1] (setting [2]) and in assay [1] (setting [3]) was 1.5 throughout. Also, the “Effect on parakeratosis caused” value in assay [1] was “improved parakeratosis”.
Turning to `NCC(=O)O` [Glycine, glycine], in the assay with pores, the “Decision of Replica of Pores” value was −1.2 and the “Pore-shrinking effect (in words)” value was “excellent pore-shrinking effects”. In addition, the “Incidence of Parakeratosis” value in assay [1] (setting [3]) is given as 1.3. Also, the “Effect on parakeratosis caused” value in assay [1] is listed as “improved parakeratosis”.
`O=C(O)C1=CCNCC1` [Isogubacin, isogubacin]: the “Incidence of Parakeratosis” value in assay [1] (setting [2]) is reported as 1.3. Besides, the “Effect on parakeratosis caused” value in assay [1] is listed as “improved parakeratosis”.
On to `N[C@@H](CCC(=O)O)C(=O)O` [L-Glutamic Acid, L-glutamic acid], for which the “Incidence of Parakeratosis” value in assay [1] (setting [3]) is given as 3.0. In addition, the “Effect on parakeratosis caused” value in assay [1] is “worsens parakeratosis”.
Take `C[C@]12N[C@H](Cc3ccccc31)c1ccccc12` [MK-801, dizocylpin]: the “Incidence of Parakeratosis” value in assay [1] (setting [2]) is on record as 1.0. Moreover, the “Effect on parakeratosis caused” value in assay [1] is listed as “improved parakeratosis”.
In the same order, the values of `NCc1cc(=O)[nH]o1` [Muscimol, muscimol] are 1.3 and “improved parakeratosis”.
`CCCCCCCC/C=C\CCCCCCCC(=O)O` [Oleic Acid, oleic acid]: the “Excitatory function of the cell (in words)” value in the assay with Epidermal keratinocyte was “has an excitatory function”.
Take `Cc1nc(N=Nc2ccc(S(=O)(=O)O)cc2S(=O)(=O)O)c(COP(=O)(O)O)c(C=O)c1O` [PPADS, pyridoxal phosphate-6-azophenyl-2′,4′-disulfonic acid]: in assay [1] (setting [2]), the “Incidence of Parakeratosis” value is 1.8. For the same molecule, in assay [1], the “Effect on parakeratosis caused” value is recorded as “improved parakeratosis”.
The corresponding values for `Cc1ccc(C(=O)Nc2ccc(S(=O)(=O)O)c3cc(S(=O)(=O)O)cc(S(=O)(=O)O)c23)cc1NC(=O)c1cccc(NC(=O)Nc2cccc(C(=O)Nc3cc(C(=O)Nc4ccc(S(=O)(=O)O)c5cc(S(=O)(=O)O)cc(S(=O)(=O)O)c45)ccc3C)c2)c1` [Suramin, suramin] are 1.5 and “improved parakeratosis”.
Turning to `C[N+]1(C)CCc2cc3c(cc2[C@H]1[C@@H]1OC(=O)c2c1ccc1c2OCO1)OCO3.[Br-]` [bicuculline methobromide], in assay [1], the “Effect on parakeratosis caused” value is on record as “inhibited parakeratosis inhibitory action”.
For trinitrophenyl-ATP [TNP-ATP], in assay [1] (setting [2]), the “Incidence of Parakeratosis” value came to 1.5. Further, the “Effect on parakeratosis caused” value in assay [1] was “improved parakeratosis”.

(Values after patent US20080269304A1, “Parakeratosis inhibitor, pore-shrinking agent and skin preparation for external use” (priority 2002, published 2008).)
